Laboratory results as given in patent US11992497B2 (priority 2021, dated 2024).

What was measured:
Type in all cases: cell-based
HCT15 [1] = experiment: GI50 by MTS assay; conditions: Homo sapiens, HCT-15
Method: (§1) For MTS assay, the compounds have been tested at 8 concentrations on 4 colon cancer cell lines for 48 hours. The compounds, concentrations and colon cancer cell line panel tested are the following: • CBG: 0 μM, 1.25 μM, 2.5 μM, 5 μM, 10 μM, 20 μM, 40 μM, and 80 μM. • Compound 1: 0 μM, 1.25 μM, 2.5 μM, 5 μM, 10 μM, 20 μM, 40 μM, and 80 μM. • Compound 2: 0 μM, 1.25 μM, 2.5 μM, 5 μM, 10 μM, 20 μM, 40 μM, and 80 μM. • Colon cancer cell line panel: SW620, HCT15, HT29, HCTl16
(§2) Four colon cancer cell lines of SW620, HCT15, HT29, and HCT116 were included in the colon cancer cell line panel.
(§3) CBG, compound 1 and compound 2 were dissolved in DMSO at a concentration of 10 mM and stored at −20° C.
(§4) Evaluation of DM compounds treatment-induced growth inhibition was performed to determine the GI50 of four colon cancer cell lines with MTS assay or clonogenic assay. Each experiment was repeated in triplicate. In GraphPad Prism, data were log-transformed and fit with a nonlinear curve to calculate the GI50.
(§5) MTS assay. cells were plated at 96 well plates at a density of 1,000 cells per well. After 24 hours, cells were treated with DM compounds at increasing concentrations or DMSO vehicle and incubated for 48 hours. 20 μl of MTS reagent (Promega) was then added and incubated for 2 hours. The absorbance was measured with a microplate reader at 490 nm. Each experiment was repeated in triplicate. In GraphPad Prism, data were log-transformed and fit with a nonlinear curve to calculate the GI50.

HT29 [2] = experiment: GI50 by MTS assay; conditions: Homo sapiens, HT-29
Method: as §1, §2, §3, §4, §5

HCT116 [3] = experiment: GI50 by MTS assay; conditions: Homo sapiens, HCT-116
Method: as §1, §2, §3, §4, §5

SW620 [4] = experiment: GI50 by MTS assay; conditions: Homo sapiens, SW-620
Method: as §1, §2, §3, §4, §5

HCT15 [5] = experiment: GI50 by clonogenic assay; conditions: Homo sapiens
Method: (§6) For colonogenic assay, the compounds were tested at 4 concentrations for 1 week or 2 weeks on 4 colon cancer cell lines. The compounds, concentrations, colon cancer cell line panel and end time point tested are the following: • CBG: 0 μM, 10 μM, 20 μM, 40 μM, and 80 μM. • Compound 1: 0 μM, 5 μM, 7.5 μM, 10 μM, and 20 μM. • Compound 2: 0 μM, 10 μM, 20 μM, 40 μM, and 80 μM. • Colon cancer cell line panel and end time point: SW620, HCT15, HCT116, 1 week; HT29, 2 weeks
as §2, §3, §4
(§7) Clonogenic assay. cells were plated at 6 well plates at a density of 2,500 cells per well. After 24 hours, cells were treated with DM compounds at increasing concentrations or DMSO vehicle and incubated for 1 week or 2 weeks. Cells were then fixed and stained with 1% crystal violet (Sigma-Aldrich) solution. Quantification was performed using ImageJ. Each experiment was repeated in triplicate. In GraphPad Prism, data were log-transformed and fit with a nonlinear curve to calculate the GI50.

HT29 [6] = experiment: GI50 by clonogenic assay; conditions: Homo sapiens
Method: as §6, §2, §3, §4, §7

HCT116 [7] = experiment: GI50 by clonogenic assay; conditions: Homo sapiens
Method: as §6, §2, §3, §4, §7

SW620 [8] = experiment: GI50 by clonogenic assay; conditions: Homo sapiens
Method: as §6, §2, §3, §4, §7

[9] = HCT15 cells, 48 hours, read-out: GI50 (MTS assay)
[10] = MTS assay, HCT15, 48 hours, average of N1-N3, read-out: GI50 AVG
[11] = MTS assay, HCT15, 48 hours, replicate N1, read-out: GI50 N1
[12] = MTS assay, HCT15, 48 hours, replicate N2, read-out: GI50 N2
[13] = MTS assay, HCT15, 48 hours, replicate N3, read-out: GI50 N3
[14] = HT29 cells, 48 hours, read-out: GI50 (MTS assay)
[15] = MTS assay, HT29, 48 hours, average of N1-N3, read-out: GI50 AVG
[16] = MTS assay, HT29, 48 hours, replicate N1, read-out: GI50 N1
[17] = MTS assay, HT29, 48 hours, replicate N2, read-out: GI50 N2
[18] = MTS assay, HT29, 48 hours, replicate N3, read-out: GI50 N3
[19] = HCTl116 cells, 48 hours, read-out: GI50 (MTS assay)
[20] = MTS assay, SW620, 48 hours, average of N1-N3, read-out: GI50 AVG
[21] = MTS assay, SW620, 48 hours, replicate N1, read-out: GI50 N1
[22] = MTS assay, SW620, 48 hours, replicate N2, read-out: GI50 N2
[23] = MTS assay, SW620, 48 hours, replicate N3, read-out: GI50 N3
[24] = SW620 cells, 48 hours, read-out: GI50 (MTS assay)
[25] = HCT-15, 168 h, HCT15 cells, 1 week, read-out: GI50 (clonogenic assay)
[26] = HCT-15, clonogenic assay, HCT15, average of N1-N3, read-out: GI50 AVG
[27] = HCT-15, clonogenic assay, HCT15, replicate N1, read-out: GI50 N1
[28] = HCT-15, clonogenic assay, HCT15, replicate N2, read-out: GI50 N2
[29] = HCT-15, clonogenic assay, HCT15, replicate N3, read-out: GI50 N3
[30] = HT-29, 336 h, HT29 cells, 2 weeks, read-out: GI50 (clonogenic assay)
[31] = HT-29, clonogenic assay, HT29, average of N1-N3, read-out: GI50 AVG
[32] = HT-29, clonogenic assay, HT29, replicate N1, read-out: GI50 N1
[33] = HT-29, clonogenic assay, HT29, replicate N2, read-out: GI50 N2
[34] = HT-29, clonogenic assay, HT29, replicate N3, read-out: GI50 N3
[35] = HCT-116, 168 h, HCT116 cells, 1 week, read-out: GI50 (clonogenic assay)
[36] = HCT-116, clonogenic assay, HCT116, average of N1-N3, read-out: GI50 AVG
[37] = HCT-116, clonogenic assay, HCT116, replicate N1, read-out: GI50 N1
[38] = HCT-116, clonogenic assay, HCT116, replicate N2, read-out: GI50 N2
[39] = HCT-116, clonogenic assay, HCT116, replicate N3, read-out: GI50 N3
[40] = SW-620, 168 h, SW620 cells, 1 week, read-out: GI50 (clonogenic assay)
[41] = SW-620, clonogenic assay, SW620, average of N1-N3, read-out: GI50 AVG
[42] = SW-620, clonogenic assay, SW620, replicate N1, read-out: GI50 N1
[43] = SW-620, clonogenic assay, SW620, replicate N2, read-out: GI50 N2
[44] = SW-620, clonogenic assay, SW620, replicate N3, read-out: GI50 N3
[45] = MTS assay, HCT116, 48 hours, replicate N1, read-out: GI50 N1
[46] = MTS assay, HCT116, 48 hours, replicate N2, read-out: GI50 N2
[47] = MTS assay, HCT116, 48 hours, replicate N3, read-out: GI50 N3

Structure (SMILES) | GI50 (HCT15 [1]; [9]) | GI50 (HCT15 [1]; [10]) | GI50 (HCT15 [1]; [11]) | GI50 (HCT15 [1]; [12]) | GI50 (HCT15 [1]; [13]) | GI50 (HT29 [2]; [14]) | GI50 (HT29 [2]; [16]) | GI50 (HT29 [2]; [17]) | GI50 (HT29 [2]; [18]) | GI50 (HCT116 [3]; [19]) | GI50 (SW620 [4]; [21]) | GI50 (SW620 [4]; [22]) | GI50 (SW620 [4]; [23]) | GI50 (SW620 [4]; [24]) | GI50 (HCT15 [5]; [25]) | GI50 (HCT15 [5]; [26]) | GI50 (HCT15 [5]; [27]) | GI50 (HCT15 [5]; [28]) | GI50 (HCT15 [5]; [29]) | GI50 (HT29 [6]; [30]) | further results
CCCCCc1cc(O)c(C/C=C(\C)CCC=C(C)C)c(OC)c1 [Compound 1, (E)-2-(3,7-dimethylocta-2,6-dien-1-yl)-3-methoxy-5-pentylphenol] | 10 ± 0.52 µM | 10 µM | 10.1 µM | 9.46 µM | 10.5 µM | 10.2 ± 0.4 µM | 9.84 µM | 10.1 µM | 10.6 µM | 10.3 ± 0.24 µM | 8.47 µM | 7.55 µM | 10.3 µM | 8.76 ± 1.38 µM | 5.03 ± 2.16 µM | 5.03 µM | 3.64 µM | 7.52 µM | 3.94 µM | 2.95 ± 1.41 µM | GI50 (HT29 [2]; [15]): 10.2 µM; GI50 (SW620 [4]; [20]): 8.76 µM; GI50 (HT29 [6]; [31]): 2.95 µM; GI50 (HT29 [6]; [32]): 1.33 µM; GI50 (HT29 [6]; [33]): 3.87 µM; GI50 (HT29 [6]; [34]): 3.66 µM; GI50 (HCT116 [7]; [35]): 5.51 ± 1.51 µM; GI50 (HCT116 [7]; [36]): 5.51 µM; GI50 (HCT116 [7]; [37]): 4.79 µM; GI50 (HCT116 [7]; [38]): 7.61 µM; GI50 (HCT116 [7]; [39]): 4.12 µM; GI50 (SW620 [8]; [40]): 5.35 ± 1.11 µM; GI50 (SW620 [8]; [41]): 5.35 µM; GI50 (SW620 [8]; [42]): 5.76 µM; GI50 (SW620 [8]; [43]): 4.09 µM; GI50 (SW620 [8]; [44]): 6.2 µM
CCCCCc1cc(OC)c(C/C=C(\C)CCC=C(C)C)c(OC)c1 [Compound 2, (E)-2-(3,7-dimethylocta-2,6-dien-1-yl)-1,3-dimethoxy-5-pentylbenzene] | > 80 µM | 35.9 µM | > 80 µM | > 80 µM | > 80 µM | > 80 µM | > 80 µM | > 80 µM | > 80 µM | > 80 µM | > 80 µM | > 80 µM | > 80 µM | > 80 µM | 35.9 ± 8.95 µM | 35.9 µM | 46.2 µM | 30.5 µM | 31 µM | 34.5 ± 14.4 µM | GI50 (HCT116 [3]; [45]): > 80 µM; GI50 (HCT116 [3]; [46]): > 80 µM; GI50 (HCT116 [3]; [47]): > 80 µM; GI50 (HT29 [6]; [31]): 34.5 µM; GI50 (HT29 [6]; [32]): 51.1 µM; GI50 (HT29 [6]; [33]): 25 µM; GI50 (HT29 [6]; [34]): 27.3 µM; GI50 (HCT116 [7]; [35]): 43.1 ± 7.68 µM; GI50 (HCT116 [7]; [36]): 43.1 µM; GI50 (HCT116 [7]; [37]): 53.4 µM; GI50 (HCT116 [7]; [38]): 40.6 µM; GI50 (HCT116 [7]; [39]): 35.1 µM; GI50 (SW620 [8]; [40]): 41.7 ± 5.9 µM; GI50 (SW620 [8]; [41]): 41.7 µM; GI50 (SW620 [8]; [42]): 47.8 µM; GI50 (SW620 [8]; [43]): 41.2 µM; GI50 (SW620 [8]; [44]): 36 µM
CCCCCc1cc(O)c(C/C=C(\C)CCC=C(C)C)c(O)c1 [CBG, cannabigerol] | 43.6 ± 5.74 µM | 43.6 µM | 50.2 µM | 30.2 µM | 40.7 µM | 43.6 ± 4.02 µM | 42.6 µM | 48 µM | 40.1 µM | 41.4 ± 1.87 µM | 39.5 µM | 39.4 µM | 38 µM | 40 ± 0.84 µM | 17.4 ± 2.89 µM | 17.4 µM | 15.6 µM | 20.7 µM | 15.9 µM | 9.09 ± 1.71 µM | GI50 (HT29 [2]; [15]): 43.6 µM; GI50 (HCT116 [3]; MTS assay, HCT116, 48 hours, average of N1-N3, read-out: GI50 AVG): 41.4 µM; GI50 (HCT116 [3]; [45]): 40 µM; GI50 (HCT116 [3]; [46]): 44.1 µM; GI50 (HCT116 [3]; [47]): 40.2 µM; GI50 (SW620 [4]; [20]): 39 µM; GI50 (HT29 [6]; [31]): 9.09 µM; GI50 (HT29 [6]; [32]): 8.11 µM; GI50 (HT29 [6]; [33]): 8.09 µM; GI50 (HT29 [6]; [34]): 11.1 µM; GI50 (HCT116 [7]; [35]): 17.4 ± 4.91 µM; GI50 (HCT116 [7]; [36]): 17.4 µM; GI50 (HCT116 [7]; [37]): 21.1 µM; GI50 (HCT116 [7]; [38]): 20.7 µM; GI50 (HCT116 [7]; [39]): 10.5 µM; GI50 (SW620 [8]; [40]): 20.6 ± 1.95 µM; GI50 (SW620 [8]; [41]): 20.6 µM; GI50 (SW620 [8]; [42]): 18.9 µM; GI50 (SW620 [8]; [43]): 22.7 µM; GI50 (SW620 [8]; [44]): 20.1 µM
